Measured values reported in paper PMC4445981, “The glutamate transport inhibitor DL-Threo-β-Benzyloxyaspartic acid (DL-TBOA) differentially affects SN38- and oxaliplatin-induced death of drug-resistant colorectal cancer cells” (BMC Cancer, 2015).

What was measured:
[1] = tested on: parental and drug-resistant HCT116 and LoVo cell lines; experiment: MTT viability assay, HCT116 and LoVo cell lines; format: cell-based, human
Procedure: Fig. 2 DL-TBOA augments SN38-induced death in SN38-resistant cells, but protects oxaliplatin-resistant cells from oxaliplatin-induced death. Parental and drug-resistant HCT116 and LoVo cell lines seeded in 96-well dishes were exposed to SN38 (0.1 or 0.8 μM) or oxaliplatin (0.8 or 20 μM), alone or in combination with 70 or 350 μM DL-TBOA as indicated, for 48 h. Viability was assessed by MTT assay. a-b Parental HCT116 cells, (c) SN38 resistant HCT116 cells, (d) Oxaliplatin-resistant HCT116 cells, (e-f) Parental LoVo cells, (g) SN38 resistant LoVo cells, (h) Oxaliplatin-resistant LoVo cells. Data are means with S.E.M. error bars of 3 independent experiments. *) p < 0.05, **) p < 0.01, ***) p < 0.001 compared to the control group without drug or TBOA treatment; #) p < 0.05 compared to controls without TBOA treatment. One-way ANOVA followed by Dunnett post-test
Cells were seeded at appropriate density (LoVo 10,000, and HCT116 5000 cells /100 μl) in growth medium in 96-well plates. Next day, cells were treated with inhibitors and/or chemotherapy in a total volume of 200 μl in growth medium and incubated for 48 h at 37 °C, 5 % CO2. The medium was replaced with 100 μl of 0.5 mg/ml 3-(4,5-dimethylthiazol-2-yl)-2,5-diphenyltetrazolium bromide (MTT) in growth medium. The reaction was stopped 1.5-2.5 h later by addition of 100 μl 20 % SDS in 0.02 M HCl, and incubation overnight to allow complete lysis of cells and formazan crystals. Absorbance was measured in an ELISA plate reader (Thermo Scientific MultiScan FC) at 550 nm. Data were background subtracted and % viability relative to controls calculated.

[2] = tested on: cellular reduced glutathione (GSH); experiment: Cellular GSH level; format: cell-based, human; conditions: 24 h
Procedure: Fig. 4 Effect of glutamate transporter inhibition on cellular GSH levels. a Basal intracellular GSH levels were measured as described in Materials and Methods, and normalized to total protein in the samples. b-c Normalized basal GSH levels under control conditions, in HCT116 and LoVo parental and resistant cells after 24 h of treatment with 0.8 μM SN38 or 20 μM oxaliplatin, in absence or presence of DL-TBOA (350 μM) as shown. * p < 0.05 vs untreated control group (n = 5). One-way ANOVA followed by Dunnett post-test
Cells were seeded in 24-well plates (10^4 cells per well), treated the next day with chemotherapy and/or DL-TBOA and incubated for 24 h. Medium was removed and cells were washed twice with ice-cold PBS, which was removed and 500 μl ice-cold 1 % Sulfosalicylic acid was added per well. Cells were incubated on ice for at least 10 min. After centrifugation (1 min, 15,000 g), 10 μl lysate was used to determine total GSx content. To measure GSSG content, 130 μl sample was mixed with 55 μl 0.2 M Tris (pH 9) and 5 μl 2-Vinylpyridine. Tubes were vortexed carefully and incubated for at least 1 h at room temperature. 10 μl of this mix was mixed first with 90 μl of water in a 96-well plate and then with a reaction mix (0.1 M sodium phosphate buffer pH 7.5 containing 1 mM EDTA, 10 mM NADPH, 10 mM DTNB and 0.05 μl Glutathione reductase, 2U/μl). Measurements were taken every 30 s for 10 min in an ELISA plate reader (Thermo Scientific MultiScan FC) at 405 nm absorbance. GSH values were obtained by subtraction of GSSG values from GSx values.

[3] = tested on: PARP-1 cleavage; experiment: PARP-1 cleavage by Western blotting; format: cell-based, human; conditions: DL-TBOA; HCT116 and LoVo cells
Procedure: Cells were grown to a confluence of 60-80 % and treated with chemotherapy, siRNA- or plasmid transfection as indicated. Cells were washed once in PBS, lysed in lysis buffer (1 % SDS, 0.1 M Tris pH 7.5, and 1 mM Na3VO4), sonicated, and protein content determined (DC assay, BioRad). Lysates were mixed 2:1with NuPage LDS sample buffer (Invitrogen). SDS-PAGE was carried out in NOVEX chambers with NuPAGE 10 % Bis-Tris gels under reducing and denaturing conditions, using BenchMark protein ladder (Invitrogen), and 15 μg protein per lane. Proteins were transferred to PVDF membranes, which were Ponceau S stained, blocked for 1 h at 37 °C in 5 % nonfat dry milk in TBST (0.01 M Tris/HCl, 0.15 M NaCl, 0.1 % Tween 20, pH 7.4), incubated overnight at 4 °C with primary antibodies diluted in blocking buffer, washed in TBST, incubated with secondary antibodies for 1 h, washed in TBST, and developed using BCIP/NBT (KPL). Bands were scanned and quantified using UN-SCAN-IT (Silk Scientific).
Supplementary file 12885_2015_1405_MOESM3_ESM.tiff: Additional file 3: Figure S3. […] Equal amounts of protein per lane were separated by SDS-PAGE and the protein levels of p21, and PARP-1 (full-length and cleaved, the latter indicated by arrowheads) were determined by Western blotting. […] Bottom: Densitometric quantifications based on 3 independent experiments per condition. […]

[4] = tested on: SLC1A1; conditions: depending on the system and experimental setup; cited from earlier work
[5] = tested on: SLC1A3; conditions: depending on the system and experimental setup; cited from earlier work

Compound: O=C(O)C(=O)O.[NH-][C@@H]1CCCC[C@H]1[NH-].[Pt+2] [oxaliplatin]
- viable cells remaining ([1]; parental HCT116 and LoVo, 48 h, 20 μM oxaliplatin (highest dose tested)): about 20%
- effect on cellular GSH levels ([2]; parental HCT116 cells, 0.8 μM SN38 or 20 μM oxaliplatin): slightly increased GSH levels

Compound: N[C@H](C(=O)O)[C@H](OCc1ccccc1)C(=O)O (racemic) [TBOA, DL-Threo-β-Benzyloxyaspartic acid]
- effect on SN38-induced loss of viability ([1]; SN38-resistant HCT116 and LoVo cells, concomitant DL-TBOA 70 or 350 μM, 48 h): concentration-dependently enhanced SN38-induced loss of viability
- effect on oxaliplatin-induced loss of viability ([1]; both parental cell lines, DL-TBOA 70 or 350 μM concomitantly with oxaliplatin, 48 h): counteracted the effect of oxaliplatin on viability
- effect on viability of untreated cells ([1]; no chemotherapeutic, DL-TBOA 70 or 350 μM, 48 h, all cell lines (Fig. 2a-h)): small decrease in viability
- effect on oxaliplatin-induced loss of viability ([1]; oxaliplatin-resistant HCT116 and LoVo cells, DL-TBOA 70 or 350 μM, 48 h): reversed oxaliplatin-induced loss of viability
- effect on SN38-induced loss of viability ([1]; parental cell lines, DL-TBOA 70 or 350 μM concomitantly with SN38, 48 h): slightly exacerbated the SN38-induced loss of viability
- effect on cellular GSH levels ([2]; 350 μM DL-TBOA, HCT116 and LoVo parental and resistant cells): no detectable effect
- effect on cellular level of cleaved PARP-1 [3]: did not significantly alter
- IC50 values in uptake assays [4]: low micromolar range
- IC50 values in uptake assays [5]: low micromolar range
